pIC50: −log10 of the molar value. Where two headings read alike, the source gives them in different places.

One assay concerns A2780 cells. As to the kind of experiment: In-vitro cell proliferation assay (SRB), A2780 cells. The conditions noted are these: A2780 cells, 72 hours, read-out: A2780 IC50. The class given is cell-based. In outline:
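Growth inhibition was derived from background-corrected SRB absorbance (570 nm), measured on cells fixed in 6% TCA after three days of compound treatment under 5% CO2 at 37° C.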

Another assay concerns the target T1, NAMPT (Homo sapiens, UniProt P43490).
T1 construct: His tag; host or cells: E. coli
Nature of the assay: Biochemical inhibition assay: NAMPT enzymatic reaction, NMN quantified by mass spectrometry. The conditions noted are these: read-out: Biochem IC50. In outline: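 Inhibition of E. coli-expressed His-tagged human NAMPT, measured as NMN formation by mass spectrometry after a 30 min room-temperature reaction containing 1 μM NAM, 100 μM PRPP and 2.5 mM ATP.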

Setting [1] is: Homo sapiens, A2780, 72 h, SRB assay.

T1 sequence (P43490 whole entry): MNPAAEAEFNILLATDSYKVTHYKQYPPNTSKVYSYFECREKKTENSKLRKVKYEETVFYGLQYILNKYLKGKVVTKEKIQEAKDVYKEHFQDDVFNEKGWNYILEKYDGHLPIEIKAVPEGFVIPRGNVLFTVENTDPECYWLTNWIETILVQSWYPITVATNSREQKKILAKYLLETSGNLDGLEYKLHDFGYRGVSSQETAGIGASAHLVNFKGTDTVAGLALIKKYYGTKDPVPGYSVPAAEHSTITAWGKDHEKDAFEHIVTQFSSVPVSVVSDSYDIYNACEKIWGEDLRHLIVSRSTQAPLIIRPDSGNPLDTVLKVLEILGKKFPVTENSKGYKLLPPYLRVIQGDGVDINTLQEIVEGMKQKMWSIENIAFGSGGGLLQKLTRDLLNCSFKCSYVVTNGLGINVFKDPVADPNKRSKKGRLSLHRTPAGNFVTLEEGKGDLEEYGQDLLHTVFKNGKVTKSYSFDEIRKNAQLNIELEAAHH

In the case of `NS(=O)(=O)c1cccc(S(=O)(=O)c2ccc(CNC(=O)c3cnc4[nH]ncc4c3)cc2)c1` [N-({4-[(3-sulfamoylbenzene)sulfonyl]phenyl}methyl)-1H-pyrazolo[3,4-b]pyridine-5-carboxamide], the pIC50 (usually −log10 of the IC50, conventionally taken in molar units) is 6.00 to 7.00 with A2780 cells (Homo sapiens, A2780, 72 h, SRB) and 7.52 at NAMPT (NAMPT enzymatic reaction).
On the same counts, the results for `COc1cccc(F)c1S(=O)(=O)c1ccc(CNC(=O)c2ccc3nccn3c2)cc1` [N-({4-[(2-fluoro-6-methoxybenzene)sulfonyl]phenyl}methyl)imidazo[1,2-a]pyridine-6-carboxamide] are 7.58 and 7.32.
`N#Cc1ccccc1S(=O)(=O)c1ccc(CNC(=O)c2cc3ccncc3s2)cc1` [N-({4-[(2-cyanobenzene)sulfonyl]phenyl}methyl)thieno[2,3-c]pyridine-2-carboxamide]: the pIC50 in the assay on A2780 cells (Homo sapiens, A2780, 72 h, SRB) was 7.17; at NAMPT (NAMPT enzymatic reaction), 7.84.
Turning to `COc1cc(OC)cc(S(=O)(=O)c2ccc(CNC(=O)c3cc4cnccc4[nH]3)cc2)c1`, the pIC50 is 8.82 in the assay on A2780 cells (Homo sapiens, A2780, 72 h, SRB) and 8.36 at NAMPT (NAMPT enzymatic reaction).
On the same counts, the results for `COc1ccc(S(=O)(=O)c2ccc(CNC(=O)c3cc4ccncc4o3)cc2)cc1OC` are 8.42 and 8.21.
Taken in the same sequence, the figures for `O=C(NCc1ccc(S(=O)(=O)c2c(Cl)cccc2Cl)cc1)c1cnc2[nH]ncc2c1` were 5.00 to 6.00 and 6.75.
On the same counts, the results for `COc1c(F)cccc1S(=O)(=O)c1ccc(CNC(=O)c2cc3ccncc3o2)cc1` are 7.51 and 7.78.
Consider `O=C(NCc1ccc(S(=O)(=O)c2cccc3c2sc2ccccc23)cc1)c1cc2ccncc2o1`, for which the pIC50 in the assay with A2780 cells (Homo sapiens, A2780, 72 h, SRB) is 7.92; on NAMPT (NAMPT enzymatic assay) it was 8.06.
Regarding `COc1c(Cl)ccc(S(=O)(=O)c2ccc(CNC(=O)c3ccc4nccn4c3)cc2)c1Cl`, the pIC50 in the assay on A2780 cells (Homo sapiens, A2780, 72 h, SRB) is 7.89; on NAMPT (NAMPT enzymatic reaction), 7.51.
On the same counts, the results for `O=C(NCc1ccc(S(=O)(=O)c2c(F)cccc2Cl)cc1)c1ccc2nccn2c1` are 7.12 and 6.76.
Turning to `O=C(NCc1ccc(S(=O)(=O)c2cccc3ccccc23)cc1)c1cc2ccncc2o1` [N-{[4-(naphthalene-1-sulfonyl)phenyl]methyl}furo[2,3-c]pyridine-2-carboxamide], the pIC50 with A2780 cells (Homo sapiens, A2780, 72 h, SRB) is 8.51; on NAMPT (NAMPT enzymatic assay), 8.31.
Take `O=C(NCc1ccc(S(=O)(=O)c2cccc(-n3cccn3)c2)cc1)c1cc2ccncc2o1`: the negative-log IC50 (pIC50) in the assay with A2780 cells (Homo sapiens, A2780, 72 h, SRB) was 8.04; at NAMPT (NAMPT enzymatic assay), 8.12.
On the same counts, the results for `Cc1nc(-c2cccc(S(=O)(=O)c3ccc(CNC(=O)c4cc5ccncc5s4)cc3)c2)no1` are 9.00 and 8.48.
On the same counts, the results for `CN(C)c1ccc(S(=O)(=O)c2ccc(CNC(=O)c3cc4ccncc4o3)cc2)cn1` [N-({4-[6-(dimethylamino)pyridine-3-sulfonyl]phenyl}methyl)furo[2,3-c]pyridine-2-carboxamide] are 8.74 and 8.52.
Turning to `O=C(NCc1ccc(S(=O)(=O)c2ccc(OC(F)(F)F)cc2)cc1)c1cc2ccncc2o1`, the values for the pIC50 in the assay with A2780 cells (SRB) and on NAMPT (NAMPT enzymatic assay) were 7.56 and 8.03, respectively.
Consider `O=C(NCc1ccc(S(=O)(=O)c2cnn(-c3ccc(F)cc3)c2)cc1)c1cc2ccncc2o1` [N-({4-[1-(4-fluorophenyl)-1H-pyrazole-4-sulfonyl]phenyl}methyl)furo[2,3-c]pyridine-2-carboxamide], for which the pIC50 was 8.13 in the assay on A2780 cells (Homo sapiens, A2780, 72 h, SRB) and 8.16 on NAMPT (NAMPT enzymatic assay).
On to `O=C(NCc1ccc(S(=O)(=O)c2ccccc2)cc1)c1cn2ccncc2n1` [N-{[4-(benzenesulfonyl)phenyl]methyl}imidazo[1,2-a]pyrazine-2-carboxamide], for which the pIC50 in the assay on A2780 cells (setting [1]) is less than 4.52; at NAMPT (NAMPT enzymatic reaction), 5.83.
For `Cc1ccncc1S(=O)(=O)c1ccc(CNC(=O)c2cc3cnccc3[nH]2)cc1` [N-{[4-(4-methylpyridine-3-sulfonyl)phenyl]methyl}-1H-pyrrolo[3,2-c]pyridine-2-carboxamide], the pIC50 with A2780 cells (Homo sapiens, A2780, 72 h, SRB) is 7.59; on NAMPT (NAMPT enzymatic assay), 6.59.
With `COc1ccc(S(=O)(=O)c2ccc(CNC(=O)c3cnc4nccn4c3)cc2)cc1OC`, the pIC50 in the assay with A2780 cells (Homo sapiens, A2780, 72 h, SRB) was 8.14; on NAMPT (NAMPT enzymatic reaction), 8.54.
Taken in the same sequence, the figures for `CCCCOc1cccc(S(=O)(=O)c2ccc(CNC(=O)c3cc4cnccc4[nH]3)cc2)c1` [N-({4-[(3-butoxybenzene)sulfonyl]phenyl}methyl)-1H-pyrrolo[3,2-c]pyridine-2-carboxamide] were 7.67 and 7.94.
In the case of `CC(C)NC(=O)c1cccc(S(=O)(=O)c2ccc(CNC(=O)c3cnc4nccn4c3)cc2)c1`, the pIC50 in the assay with A2780 cells (Homo sapiens, A2780, 72 h, SRB) is 7.18; at NAMPT (NAMPT enzymatic assay), 8.15.
On the same counts, the results for `O=C(NCc1ccc(S(=O)(=O)c2cnn(-c3cccc(Cl)c3)c2)cc1)c1cnc2nccn2c1` [N-({4-[1-(3-chlorophenyl)-1H-pyrazole-4-sulfonyl]phenyl}methyl)imidazo[1,2-a]pyrimidine-6-carboxamide] are 7.94 and 8.66.
On the same counts, the results for `O=C(NCc1ccc(S(=O)(=O)c2cnn(-c3cccc(Cl)c3)c2)cc1)c1cc2cnccc2[nH]1` [N-({4-[1-(3-chlorophenyl)-1H-pyrazole-4-sulfonyl]phenyl}methyl)-1H-pyrrolo[3,2-c]pyridine-2-carboxamide] are 7.88 and 7.77.
As to `Cn1cc(S(=O)(=O)c2ccc(CNC(=O)c3cnc4nccn4c3)cc2)cn1` [N-{[4-(1-methyl-1H-pyrazole-4-sulfonyl)phenyl]methyl}imidazo[1,2-a]pyrimidine-6-carboxamide], the pIC50 is 6.00 to 7.00 with A2780 cells (Homo sapiens, A2780, 72 h, SRB) and 8.09 on NAMPT (NAMPT enzymatic assay).
Consider `Cc1ncccc1S(=O)(=O)c1ccc(CNC(=O)c2cc3ccncc3s2)cc1` [N-{[4-(2-methylpyridine-3-sulfonyl)phenyl]methyl}thieno[2,3-c]pyridine-2-carboxamide], for which the pIC50 with A2780 cells (Homo sapiens, A2780, 72 h, SRB) was 7.92; on NAMPT (NAMPT enzymatic assay), 7.81.
Consider `COc1ccccc1S(=O)(=O)c1ccc(CNC(=O)c2cnc3nccn3c2)cc1` [N-({4-[(2-methoxybenzene)sulfonyl]phenyl}methyl)imidazo[1,2-a]pyrimidine-6-carboxamide], for which the pIC50 in the assay with A2780 cells (Homo sapiens, A2780, 72 h, SRB) was 7.13; on NAMPT (NAMPT enzymatic reaction), 8.41.
Taken in the same sequence, the figures for `Cc1c(F)cccc1S(=O)(=O)c1ccc(CNC(=O)c2cnc3[nH]ncc3c2)cc1` [N-({4-[(3-fluoro-2-methylbenzene)sulfonyl]phenyl}methyl)-1H-pyrazolo[3,4-b]pyridine-5-carboxamide] were 7.14 and 7.33.
In the case of `Cn1ncc2ccc(S(=O)(=O)c3ccc(CNC(=O)c4cc5cnccc5[nH]4)cc3)cc21` [N-{[4-(1-methyl-1H-indazole-6-sulfonyl)phenyl]methyl}-1H-pyrrolo[3,2-c]pyridine-2-carboxamide], the pIC50 is 8.48 with A2780 cells (Homo sapiens, A2780, 72 h, SRB) and 8.29 at NAMPT (NAMPT enzymatic assay).
On the same counts, the results for `O=C(NCc1ccc(S(=O)(=O)c2cccc3c2oc2ccccc23)cc1)c1cc2ccncc2o1` are 7.89 and 7.91.
On to `COc1cc(S(=O)(=O)c2ccc(CNC(=O)c3cc4cnccc4[nH]3)cc2)ccc1Cl`, for which the pIC50 in the assay with A2780 cells (Homo sapiens, A2780, 72 h, SRB) was 8.44; at NAMPT (NAMPT enzymatic reaction) it was 8.26.
Taken in the same sequence, the figures for `COc1ccc(S(=O)(=O)c2ccc(CNC(=O)c3cnc4[nH]ncc4c3)cc2)cc1` were 7.84 and 7.68.
On to `Cc1cc(C)n(-c2cccc(S(=O)(=O)c3ccc(CNC(=O)c4ccc5ncsc5c4)cc3)c2)n1`, for which the pIC50 with A2780 cells (Homo sapiens, A2780, 72 h, SRB) is 6.00 to 7.00; on NAMPT (NAMPT enzymatic assay), 7.75.
As to `O=C(NCc1ccc(S(=O)(=O)c2ccc(F)c(F)c2)cc1)c1cc2cnccc2[nH]1` [N-({4-[(3,4-difluorobenzene)sulfonyl]phenyl}methyl)-1H-pyrrolo[3,2-c]pyridine-2-carboxamide], the pIC50 with A2780 cells (setting [1]) was 7.85; at NAMPT (NAMPT enzymatic reaction), 7.89.
For `CCCOc1ccc(Cl)cc1S(=O)(=O)c1ccc(CNC(=O)c2cnc3[nH]ncc3c2)cc1` [N-({4-[(5-chloro-2-propoxybenzene)sulfonyl]phenyl}methyl)-1H-pyrazolo[3,4-b]pyridine-5-carboxamide], the pIC50 in the assay with A2780 cells (Homo sapiens, A2780, 72 h, SRB) is 7.60; at NAMPT (NAMPT enzymatic reaction), 7.31.
With `COc1ccc(C(F)(F)F)cc1S(=O)(=O)c1ccc(CNC(=O)c2cnc3nccn3c2)cc1`, the pIC50 in the assay on A2780 cells (Homo sapiens, A2780, 72 h, SRB) was 8.44; at NAMPT (NAMPT enzymatic assay) it was 8.17.
As for `O=C(NCc1ccc(S(=O)(=O)N2CCCCC2)cc1)c1cccnc1` [N-{[4-(piperidine-1-sulfonyl)phenyl]methyl}pyridine-3-carboxamide], the pIC50 in the assay with A2780 cells (setting [1]) is 6.19; at NAMPT (NAMPT enzymatic reaction), 7.41.
In the case of `O=C(NCc1ccc(S(=O)(=O)c2ccc(OC(F)(F)F)cc2)cc1)c1cnc2[nH]ncc2c1`, the pIC50 in the assay with A2780 cells (Homo sapiens, A2780, 72 h, SRB) was 7.65; at NAMPT (NAMPT enzymatic assay), 7.46.
`Cc1cc(S(=O)(=O)c2ccc(CNC(=O)c3cnc4[nH]ncc4c3)cc2)ccc1F`: the pIC50 with A2780 cells (Homo sapiens, A2780, 72 h, SRB) was 8.08; at NAMPT (NAMPT enzymatic reaction), 8.30.
On the same counts, the results for `CCc1ccccc1S(=O)(=O)c1ccc(CNC(=O)c2cnc3nccn3c2)cc1` are 7.60 and 8.60.
On the same counts, the results for `O=C(NCc1ccc(S(=O)(=O)c2ccc(Cl)c(F)c2)cc1)c1cnc2nccn2c1` are 8.05 and 8.72.
In the case of `O=C(NCc1ccc(S(=O)(=O)c2cccc(F)c2)cc1)c1cnc2[nH]ncc2c1`, the pIC50 with A2780 cells (Homo sapiens, A2780, 72 h, SRB) is 7.60; at NAMPT (NAMPT enzymatic reaction), 7.47.
On to `O=C(NCc1ccc(S(=O)(=O)c2ccc(C(F)(F)F)cc2OCC(F)(F)F)cc1)c1cc2cnccc2[nH]1`, for which the pIC50 in the assay with A2780 cells (Homo sapiens, A2780, 72 h, SRB) is 9.00; on NAMPT (NAMPT enzymatic assay), 8.05.
In the case of `CC(C)c1cccc(S(=O)(=O)c2ccc(CNC(=O)c3cnc4[nH]ncc4c3)cc2)c1`, the pIC50 in the assay on A2780 cells (Homo sapiens, A2780, 72 h, SRB) is 8.20; at NAMPT (NAMPT enzymatic assay), 7.86.
With `O=C(NCc1ccc(S(=O)(=O)c2ccc(C(F)(F)F)c(Cl)c2)cc1)c1cc2cnccc2[nH]1`, the pIC50 in the assay with A2780 cells (Homo sapiens, A2780, 72 h, SRB) was 8.11; on NAMPT (NAMPT enzymatic assay), 7.88.

The values are drawn from patent US12336981B2, “Compounds and compositions for the inhibition of NAMPT” (Valo Health, Inc., priority 2010, dated 2025).
